Laboratory results: patent US20220323372A1, “COMPOSITION FOR IMPROVING LIVER FUNCTION” (NITTO FUJI FLOUR MILLING CO., LTD., priority 2019, published 2022)

How the values were obtained:
[1] = test system: Non-alcoholic steatohepatitis model mice (C57BL/6NASH mice); assay: Triglyceride level in liver tissue (Test Example 4); format: in vivo; conditions: group R: feed with 0.4 mass % of resveratrol; control group 130 mg/g
Excerpt: Non-alcoholic steatohepatitis model mice (Japan Charles River Co., Ltd., C57BL/6NASH mice, male) were purchased at the age of six weeks, acclimated for two days, and reared six per cage. The mice were reared in a constant temperature/constant humidity room maintained on a 12-hour light-dark cycle (light: 8 a.m. to 8 p.m.). After the acclimation phase, the feeds shown below were fed ad libitum in accordance with the test group. • Control group (group C): control feed not blended with test substance • Resveratrol group (group R): feed blended with 0.4 mass % of resveratrol (Tokyo Chemical Industry Co., Ltd.) • ARs high dose group (group AH): feed blended with 0.9 mass % of ARs • ARs low dose group (group AL): feed blended with 0.3 mass % of ARs The body weight was measured once a day during the test phase. Blood samples were also drawn once a week. Blood was drawn from the caudal vein of the mice, and plasma was obtained. The plasma was stored at −80° C. until being used in measurement. Also, after the body weight was measured on the final day of the test, blood was drawn under anesthesia by diethyl ether. The liver was removed immediately after sacrifice, weighed, and frozen by dry ice. […] A quantity of 0.5 mL of normal saline was added to the recovered supernatant and mixed for several seconds. […] The resultant mixture served as a sample, and the triglyceride level was measured. […]

[2] = test system: Non-alcoholic steatohepatitis model mice (C57BL/6NASH mice); assay: Weight gain in hepatitis model mice (Test Example 2); format: in vivo; conditions: Resveratrol group (group R): feed blended with 0.4 mass % of resveratrol, ad libitum
[3] = test system: Non-alcoholic steatohepatitis model mice (C57BL/6NASH mice); assay: Pathology evaluation of liver tissue by HE stain (Test Example 5); format: in vivo; conditions: group R: feed with 0.4 mass % of resveratrol; vs control group
Excerpt: Non-alcoholic steatohepatitis model mice (Japan Charles River Co., Ltd., C57BL/6NASH mice, male) were purchased at the age of six weeks, acclimated for two days, and reared six per cage. The mice were reared in a constant temperature/constant humidity room maintained on a 12-hour light-dark cycle (light: 8 a.m. to 8 p.m.). After the acclimation phase, the feeds shown below were fed ad libitum in accordance with the test group. • Control group (group C): control feed not blended with test substance • Resveratrol group (group R): feed blended with 0.4 mass % of resveratrol (Tokyo Chemical Industry Co., Ltd.) • ARs high dose group (group AH): feed blended with 0.9 mass % of ARs • ARs low dose group (group AL): feed blended with 0.3 mass % of ARs The body weight was measured once a day during the test phase. Blood samples were also drawn once a week. Blood was drawn from the caudal vein of the mice, and plasma was obtained. The plasma was stored at −80° C. until being used in measurement. Also, after the body weight was measured on the final day of the test, blood was drawn under anesthesia by diethyl ether. The liver was removed immediately after sacrifice, weighed, and frozen by dry ice. The liver was divided into halves, and each was placed in a 1.5 mL tube and frozen at −80° C. Frozen liver tissue was embedded in paraffin and sliced. […]

[4] = test system: Non-alcoholic steatohepatitis model mice (C57BL/6NASH mice); assay: AST value in plasma (Test Example 3); format: in vivo; conditions: group R: feed with 0.4 mass % of resveratrol; week 0 to week 4; vs control group
Excerpt: (§1) Non-alcoholic steatohepatitis model mice (Japan Charles River Co., Ltd., C57BL/6NASH mice, male) were purchased at the age of six weeks, acclimated for two days, and reared six per cage. The mice were reared in a constant temperature/constant humidity room maintained on a 12-hour light-dark cycle (light: 8 a.m. to 8 p.m.). After the acclimation phase, the feeds shown below were fed ad libitum in accordance with the test group. • Control group (group C): control feed not blended with test substance • Resveratrol group (group R): feed blended with 0.4 mass % of resveratrol (Tokyo Chemical Industry Co., Ltd.) • ARs high dose group (group AH): feed blended with 0.9 mass % of ARs • ARs low dose group (group AL): feed blended with 0.3 mass % of ARs The body weight was measured once a day during the test phase. Blood samples were also drawn once a week. Blood was drawn from the caudal vein of the mice, and plasma was obtained. The plasma was stored at −80° C. until being used in measurement. Also, after the body weight was measured on the final day of the test, blood was drawn under anesthesia by diethyl ether. The liver was removed immediately after sacrifice, weighed, and frozen by dry ice. […] The aspartate aminotransferase (AST) value and alanine aminotransferase (ALT) value in the plasma, which are general indicators of liver function, were measured. […]

[5] = test system: intracellular mitochondria number of liver tissue; assay: Intracellular mitochondria number of liver tissue, weight ratio of mitochondrial DNA to genomic DNA (Test Example 8); format: in vivo, mice; conditions: group R: feed with 0.4 mass % of resveratrol; vs control group
Description: In this test example, the intracellular mitochondria number of the liver tissue was examined. Specifically, the intracellular mitochondria number of the liver tissue was evaluated by comparing the weight ratio of mitochondrial DNA to genomic DNA, measured by quantitative PCR as follows. DNA was extracted from liver tissue using a “NucleoSpin (registered trademark) Tissue kit (manufactured by Takara Bio Inc.)” according to the company's instructions. Each DNA copy number was quantified using a “Mouse Feeder Cell Quantification Kit (manufactured by Takara Bio Inc.)” according to the company's instructions. Primers having the following sequences were used. The PCR reaction was carried out under the following conditions. (95° C.,30 seconds→95° C.,5 seconds→60° C.,30 seconds)×40 cycles→95° C.,60 seconds For the weight ratio of measured mitochondrial DNA to genomic DNA, the relative values of each group were compared, taking the control group (group C) as 100%.

[6] = test system: Non-alcoholic steatohepatitis model mice (C57BL/6NASH mice); assay: ALT value in plasma (Test Example 3); format: in vivo; conditions: group R: feed with 0.4 mass % of resveratrol; week 0 to week 4; vs control group
Excerpt: as §1

Oc1ccc(C=Cc2cc(O)cc(O)c2)cc1 [resveratrol]
triglyceride level in liver tissue [1]: could not be corrected
weight gain during the test phase [2]: weight gain suppression in the hepatitis model mice could not be improved
blank spaces derived from fat droplets in HE stained liver tissue [3]: virtually no effect was seen
changes in AST value in plasma [4]: the changes were almost the same as the control group
intracellular mitochondria number of liver tissue (weight ratio of mitochondrial DNA to genomic DNA) [5]: no changes in intracellular mitochondria number were seen
changes in ALT value in plasma [6]: the changes were almost the same as the control group
